Data taken from US11530199B2, “Analogs for the treatment of disease” (Insilico Medicine IP Limited, priority 2021, dated 2022).

Assay: Metabolic stability in human liver microsomes;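 further: NADPH-supplemented incubation in 100 mM potassium phosphate buffer, compound loss sampled at 0, 5, 10, 20, 30 and 60 min by LC-MS/MS, first-order kinetics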
Type: in vitro ADME
Settings: LM Clint; human liver microsomes 0.5 mg protein/mL, test compound 1 μM, 37° C., up to 60 min

Human Liver Microsome (μM/min/mg)	SMILES
+ (>100 μM/min/mg as)	CC(C)n1cnc(-c2ccc(F)cc2)c1-c1nc(C(=O)Nc2ccc(N3CCN(S(N)(=O)=O)CC3)cc2)c[nH]1 [Compound 97, 5′-(4-fluorophenyl)-3′-isopropyl-N-(4-(4-sulfamoylpiperazin-1-yl)phenyl)-1H,3′H-[2,4′-biimidazole]-4-carboxamide]
++ (10-100 μM/min/mg as ++)	CC(C)n1cnc(-c2ccc(F)cc2)c1-c1nc(C(=O)Nc2ccc(N3CCN(C(N)=O)CC3)cc2)c[nH]1 [Compound 99, N-(4-(4-carbamoylpiperazin-1-yl)phenyl)-5′-(4-fluorophenyl)-3′-isopropyl-1H,3′H-[2,4′-biimidazole]-4-carboxamide]
+++ (1-10 μM/min/mg as +++)	CC(C)n1cnc(-c2ccc(F)cc2)c1-c1nc(C(=O)Nc2ccc(CCC(=O)O)cc2)c[nH]1 [Compound 102, 3-(4-(5′-(4-fluorophenyl)-3′-isopropyl-1H,3′H-[2,4′-biimidazole]-4-carboxamido)phenyl)propanoic acid]
++ (10-100 μM/min/mg as ++)	CC(C)n1cnc(-c2ccc(F)cc2)c1-c1nc(C(=O)Nc2ccc(CCO)cc2)c[nH]1 [Compound 111, 5′-(4-fluorophenyl)-N-(4-(2-hydroxyethyl)phenyl)-3′-isopropyl-1H,3′H-[2,4′-biimidazole]-4-carboxamide]
+++ (1-10 μM/min/mg as +++)	CC(C)n1cnc(-c2ccc(F)cc2)c1-c1nc(C(=O)Nc2ccc(C(=O)O)cc2)c[nH]1 [Compound 113, 4-(5′-(4-fluorophenyl)-3′-isopropyl-1H,3′H-[2,4′-biimidazole]-4-carboxamido)benzoic acid]
+++ (1-10 μM/min/mg as +++)	CC(C)n1cnc(-c2ccc(F)cc2)c1-c1nc(C(=O)Nc2ccc(N(CCO)CCO)cc2)c[nH]1 [Compound 116, N-(4-(bis(2-hydroxyethyl)amino)phenyl)-5′-(4-fluorophenyl)-3′-isopropyl-1H,3′H-[2,4′-biimidazole]-4-carboxamide]
++ (10-100 μM/min/mg as ++)	CC(C)n1cnc(-c2ccc(F)cc2)c1-c1nc(C(=O)Nc2ccc(N3CCN(CCO)CC3)cc2)c[nH]1 [Compound 117, 5′-(4-fluorophenyl)-N-(4-(4-(2-hydroxyethyl)piperazin-1-yl)phenyl)-3′-isopropyl-1H,3′H-[2,4′-biimidazole]-4-carboxamide]
++ (10-100 μM/min/mg as ++)	CN1CCN(c2ccc(NC(=O)c3c[nH]c(-c4c(-c5ccc(F)cc5)ncn4C)n3)cc2)CC1 [Compound 119, 5′-(4-fluorophenyl)-3′-methyl-N-(4-(4-methylpiperazin-1-yl)phenyl)-1H,3′H-[2,4′-biimidazole]-4-carboxamide]
++ (10-100 μM/min/mg as ++)	CN1CCN(c2ccc(NC(=O)c3c[nH]c(-c4c(-c5ccc(F)cc5)ncn4CC(F)(F)F)n3)cc2)CC1 [Compound 120, 5′-(4-fluorophenyl)-N-(4-(4-methylpiperazin-1-yl)phenyl)-3′-(2,2,2-trifluoroethyl)-1H,3′H-[2,4′-biimidazole]-4-carboxamide]
+ (>100 μM/min/mg as)	CC(C)n1cnc(-c2ccc(F)cc2)c1-c1ccc(C(=O)Nc2ccc(N3CCN(C)CC3)cc2)o1 [Compound 121, 5-(4-(4-fluorophenyl)-1-isopropyl-1H-imidazol-5-yl)-N-(4-(4-methylpiperazin-1-yl)phenyl)furan-2-carboxamide]
+ (>100 μM/min/mg as)	CC(C)n1cnc(-c2ccc(F)cc2)c1-c1ccc(C(=O)Nc2ccc(CCO)cc2)o1 [Compound 126, 5-(4-(4-fluorophenyl)-1-isopropyl-1H-imidazol-5-yl)-N-(4-(2-hydroxyethyl)phenyl)furan-2-carboxamide]
+ (>100 μM/min/mg as)	CC(C)n1cnc(-c2ccc(F)cc2)c1-c1cccc(C(=O)Nc2ccc(N3CCN(C)CC3)cc2)n1 [Compound 127]
+ (>100 μM/min/mg as)	CC(C)n1cnc(-c2ccc(F)cc2)c1-c1cccc(C(=O)Nc2ccc(N3CCN(CCO)CC3)cc2)n1 [Compound 128]
++ (10-100 μM/min/mg as ++)	CN1CCN(c2ccc(NC(=O)c3c[nH]c(-c4c(-c5ccc(F)cc5)ncn4C(F)F)n3)cc2)CC1 [Compound 130, 3′-(difluoromethyl)-5′-(4-fluorophenyl)-N-(4-(4-methylpiperazin-1-yl)phenyl)-1H,3′H-[2,4′-biimidazole]-4-carboxamide]
+++ (1-10 μM/min/mg as +++)	CC(C)n1cnc(-c2ccc(F)cc2)c1-c1cccc(C(=O)Nc2ccc(CCC(=O)O)cc2)n1 [Compound 131]
+++ (1-10 μM/min/mg as +++)	CC(C)n1cnc(-c2ccc(F)cc2)c1-c1nc(C(=O)Nc2ccc(CCCCC(=O)O)cc2)c[nH]1 [Compound 132, 5-(4-(5′-(4-fluorophenyl)-3′-isopropyl-1H,3′H-[2,4′-biimidazole]-4-carboxamido)phenyl)pentanoic acid]
+ (>100 μM/min/mg as)	CN1CCN(c2ccc(NC(=O)c3c[nH]c(-c4c(-c5ccc(F)cc5)ncn4CC(C)(C)C)n3)cc2)CC1 [Compound 135, 5′-(4-fluorophenyl)-N-(4-(4-methylpiperazin-1-yl)phenyl)-3′-neopentyl-1H,3′H-[2,4′-biimidazole]-4-carboxamide]
+++ (1-10 μM/min/mg as +++)	CC(C)n1cnc(-c2ccc(Cl)cc2)c1-c1nc(C(=O)Nc2ccc(CCC(=O)O)cc2)c[nH]1 [Compound 137, 3-(4-(5′-(4-chlorophenyl)-3′-isopropyl-1H,3′H-[2,4′-biimidazole]-4-carboxamido)phenyl)propanoic acid]
++ (10-100 μM/min/mg as ++)	CC(C)n1cnc(-c2ccc(Cl)cc2)c1-c1nc(C(=O)Nc2ccc(N3CCN(CCO)CC3)cc2)c[nH]1 [Compound 139, 5′-(4-chlorophenyl)-N-(4-(4-(2-hydroxyethyl)piperazin-1-yl)phenyl)-3′-isopropyl-1H,3′H-[2,4′-biimidazole]-4-carboxamide]
+ (>100 μM/min/mg as)	CC(C)n1cnc(-c2ccc(C(F)(F)F)cc2)c1-c1nc(C(=O)Nc2ccc(N3CCN(C)CC3)cc2)c[nH]1 [Compound 142, 3′-isopropyl-N-(4-(4-methylpiperazin-1-yl)phenyl)-5′-(4-(trifluoromethyl)phenyl)-1H,3′H-[2,4′-biimidazole]-4-carboxamide]
++ (10-100 μM/min/mg as ++)	CC(C)n1cnc(-c2ccc(F)c(F)c2)c1-c1nc(C(=O)Nc2ccc(N3CCN(CCO)CC3)cc2)c[nH]1 [Compound 146, 5′-(3,4-difluorophenyl)-N-(4-(4-(2-hydroxyethyl)piperazin-1-yl)phenyl)-3′-isopropyl-1H,3′H-[2,4′-biimidazole]-4-carboxamide]
++ (10-100 μM/min/mg as ++)	CC(C)n1cnc(-c2ccc(F)c(F)c2)c1-c1nc(C(=O)Nc2ccc(N3CCN(C)CC3)cc2)c[nH]1 [Compound 156, 5′-(3,4-difluorophenyl)-3′-isopropyl-N-(4-(4-methylpiperazin-1-yl)phenyl)-1H,3′H-[2,4′-biimidazole]-4-carboxamide]
+++ (1-10 μM/min/mg as +++)	O=C(Nc1ccc(N2CCN(CCO)CC2)cc1)c1c[nH]c(-c2c(-c3ccc(F)cc3)ncn2[C@H]2CC[C@H](O)CC2)n1 [Compound 158, 5′-(4-fluorophenyl)-3′-((1r,4r)-4-hydroxycyclohexyl)-N-(4-(4-(2-hydroxyethyl)piperazin-1-yl)phenyl)-1H,3′H-[2,4′-biimidazole]-4-carboxamide]
++ (10-100 μM/min/mg as ++)	CN1CCN(c2ccc(NC(=O)c3c[nH]c(-c4c(-c5ccc(F)cc5)ncn4[C@H]4CC[C@H](O)CC4)n3)cc2)CC1 [Compound 159, 5′-(4-fluorophenyl)-3′-((1r,4r)-4-hydroxycyclohexyl)-N-(4-(4-methylpiperazin-1-yl)phenyl)-1H,3′H-[2,4′-biimidazole]-4-carboxamide]
+++ (1-10 μM/min/mg as +++)	C[N+]1([O-])CCN(c2ccc(NC(=O)c3c[nH]c(-c4c(-c5ccc(F)cc5)ncn4CC(F)(F)F)n3)cc2)CC1 [Compound 166, 4-(4-(5′-(4-fluorophenyl)-3′-(2,2,2-trifluoroethyl)-1H,3′H-[2,4′-biimidazole]-4-carboxamido)phenyl)-1-methylpiperazine 1-oxide]
++ (10-100 μM/min/mg as ++)	O=C(Nc1ccc(N2CCNCC2)cc1)c1c[nH]c(-c2c(-c3ccc(F)cc3)ncn2CC(F)(F)F)n1 [Compound 167, 5′-(4-fluorophenyl)-N-(4-(piperazin-1-yl)phenyl)-3′-(2,2,2-trifluoroethyl)-1H,3′H-[2,4′-biimidazole]-4-carboxamide]
+++ (1-10 μM/min/mg as +++)	CN1CCN(c2ccc(NC(=O)c3c[nH]c(-c4c(-c5ccc(F)cc5)ncn4C4CCC(O)CC4)n3)cc2)CC1 (stereo not shown) [Compound 172]
++ (10-100 μM/min/mg as ++)	CC(C)n1cnc(-c2ccc(F)cc2)c1-c1nc(C(=O)Nc2ccc(N3CCNCC3)cc2)c[nH]1 [Compound 181, 5′-(4-fluorophenyl)-3′-isopropyl-N-(4-(piperazin-1-yl)phenyl)-1H,3′H-[2,4′-biimidazole]-4-carboxamide]
